Square brackets hold non-standard residues; d marks the D form. Ends that are not written are not given here.
Tests used:
RPMI8226 cells = test: MTT assay, VEGF-induced proliferation of RPMI8226 cells; type: cell-based; settings: for effect on VEGF-induced proliferation of RPMI8226 cells: VEGF 50 ng/ml, 25 μM peptide, 24 hrs, MTT; for biological activity of the analogue relative to the 7-mer (summary statement of the description): summary of Example 1 findings
Experimental: The multiple myeloma line RPMI8226 was cultivated in complex medium (RPMI1640) supplemented with 10% (vol/vol) heat-inactivated fetal calf serum (Invitrogen), 50 μg/mL penicillin, 50 μg/mL streptomycin, and 2 mM L-glutamine at 37° C. in a 5% CO2 atmosphere. RPMI8226 cells were cultured in serum-free RPMI1640 medium for 24 hrs, and then cells were seeded in 48-well culture plates (3×10^5 cells/well) and continued to culture in 0.5 ml fresh serum-free RPMI1640 medium containing 25 μM peptide for another 24 hrs. The cell viability was determined by the MTT assay. Briefly, 50 μL of MTT stock solution (50 μL) (5 mg MTT dissolved in 1 ml of sterile PBS) was added to each culture well. In addition, 50 μL of the MTT stock solution was added in 500 μL of medium as the negative control. The culture plate was incubated at 37° C. for 4 hours. Aliquots (450 μl) from each sample were taken to a new well of 48-well culture plate, adding 100 μL DMSO, mixing thoroughly using the pipette and reacted at 37° C. for 20 min and read absorbance at 570 nm. These synthesized peptides were then subject to MTT assay, in which vascular endothelial growth factor (VEGF) was used as a stimulant to induce cell proliferation. Results are depicted in FIGS. 1 to 4.

B16-F10 melanoma cells = test: Experimental pulmonary metastasis in mice; type: in vivo, C57BL/6 mice; settings: for effect on number of colonies on the surface of the lung / in vivo metastasis / No. lung colonies: 10 mg/Kg intraperitoneal every 2 days; for No. lung colonies: day 8, n = 5; for Inhibition (%): lung colonies vs vehicle, 10 mg/Kg
Experimental: 2×10^5 B16-F10 cells were suspended in 100 μl PBS and checked for viability using trypan blue staining (>95%). The B16-F10 cells were then injected into the tail vein of the 6-week-old female C57BL/6 mice; while vehicle (DMSO), the present synthetic peptide or the control peptide (10 mg/kg) were administered by intraperitoneal injections every 2 days after the B16-F10 cell injection. Five mice were used for each group. On day 8 after inoculation of cells, the lungs were removed, and the number of visible colonies on the surface of the lungs were counted using a dissecting microscope.
Metastasis is the foremost cause of death from cancer. In this example, to investigate the efficacy of the present synthetic peptide on the metastasis of cancer cells, B16-F10 cells were injected into the tail vein of a mouse, the animal was then treated with the present synthetic peptide (7-mer or 7-mer DD, 10 mg/Kg) by intraperitoneal injections every 2 days. Upon completion of the experiment, the lungs were then removed and the tumor colonies visible to the eyes were then counted. Results are depicted in FIG. 10.

HUVECs [1] = test: VEGF-induced HUVEC proliferation assay; type: cell-based; settings: VEGF (10 ng/mL) + 25 μM peptide; vs untreated HUVECs
Experimental: HUVECs (1×10^5 cells per well of 6-well plate) were grown in Medium 200 with Low Serum Growth Supplement (LSGS Kit, supplement contains 1.9% FBS, 3 ng/ml bFGF, 10 μg/ml heparin, 1 μg/ml hydrocortisone, and 10 ng/ml EGF). Culture plates were coated with 2% gelatin. Cells (passages 4-8) were cultured at 37° C. in a humidified atmosphere of 5% CO2. […]
HUVECs (1×10^5 cells per well of 6-well plate) in Medium 200 supplemented with LSGS Kit were allowed to grow onto 6-well plates coated with 2% gelatin for 24 hours at 37° C. in 5% CO2. The culture medium was then replaced with serum free Medium 200 overnight. […] Then, cells were harvested by trypsin-EDTA and counted using a hemocytometer.

HUVECs [2] = test: Endothelial cell capillary-like tube formation assay; type: cell-based; settings: VEGF (10 ng/mL) + 25 μM peptide; vs untreated HUVECs
Experimental: To examine the effect of the present synthetic peptide on in vitro angiogenesis, growth factor-reduced matrigel was pipetted into pre-chilled 24-well plates (150 μl matrigel per well) and polymerized for 45 min at 37° C. […] In this experiment, images were captured using a Cannon camera on Zeiss inverted microscope with magnification ×40 and tube length was quantified using Image analysis software (Image-Pro Plus). The control peptide as used in the present invention has the sequence of DLYRVR (SEQ ID NO: 10).

[3] = test system: STZ-induced diabetic mice; test: Vascular abnormalities in the retina of diabetic mice; type: in vivo; settings: for Fluorescence Intensity (Fold): leaked FITC-BSA in entire retina, vs vehicle
Experimental: Diabetic mice were generated by a single intraperitoneal injection of streptozotocin (STZ) (150 mg/kg body weight). STZ was freshly prepared in 0.1 M citrate buffer (pH 4.5). After injection, mice were supplied with 10% sucrose overnight to prevent sudden hypoglycemic shock. After 1 week, mice with non-fasting blood glucose levels >500 mg/dl were defined as diabetic and used for the experiments. DMSO Vehicle or the present synthetic peptide (10 mg/kg; n≥3 per peptide) were administered by intraperitoneal injections twice a day. After treatment for 24 h, mice were intraperitoneal injected with 100 mg/kg of BSA-FITC for further 30 min.
To determine vascular lesions (hemorrhaging areas) in retina, the animals were euthanized by CO2 inhalation, and the eyes were enucleated and fixed by 2% paraformaldehyde for 2 hr and flat-mounted onto glass slides to obtain optical sections by an epifluorescence microscopy. Vascular lesions in the retina was scored in all four retinal quadrants of flat mounts by using a 20× objective. Six microscopic fields were sampled in each quadrant in both the central and peripheral retina, and data were presented as the average number of lesions/retina.
Vascular FITC-BSA leakage was determined by a fluorescence spectrofluorometer based on standard curves of FITC-BSA at excitation and emission wavelengths of 488 and 535 nm, respectively, and then normalized to a non-injected control retina. For this analysis, retinas were dissected from treated and untreated diabetic mice after BSA-FITC injections, and each was solubilized in 300 μL ice-cold PBS.
Diabetic retinopathy is characterized by blood-retinal barrier (BRB) breakdown and neurotoxicity. To evaluate the possible beneficial effect of the present synthetic peptides on diabetic retinopathy, STZ-induced diabetic mice were intraperitoneally injected with 7-mer peptide, DMSO vehicle or the control peptide (SEQ ID NO: 22). The retinal vascular abnormality was then monitored by detecting the extravasation of BSA-fluorescein. Results are depicted in FIG. 11.

rat aortic ring = test: Rat aortic ring assay (ex vivo microvessel sprouting); design: species or system Sprague Dawley rats; settings: beta-FGF induced; peptide 50 μM
Experimental: Thoracic aortas were removed from euthanized 10-week-old male Sprague Dawley rats, and gently stripped off periaortic fibroadipose tissue. Aortas were sectioned to about 2-mm length rings, which were embedded in Matrigel. To induce angiogenesis, human recombinant bFGF (50 ng/ml) or bFGF plus the peptide (50 μM) was added in Matrigel. Gel (200 μl) containing an aortic ring was polymerized in 12-well plates (37° C. for 30 min) and then incubated with 1 ml of Medium 200 supplemented with 100 units/ml penicillin, and […] streptomycin and 2% FBS at 37 ° C. The cultures were propagated at 37 ° C. in a humidified incubator for up to 7 days. Sprouts were recorded using an inverted microscope platform (Leica DM16000B) with bright-field optics. Each ring was scored by three independent observers on a scale 0-4 depending on the degree of sprouting vessel being observed (0=no sprouting, 4=profuse sprouting). The experiment was repeated in triplicates.

| Substance | effect on VEGF-induced proliferation of RPMI8226 cells (RPMI8226 cells) | effect on number of colonies on the surface of the lung / in vivo metastasis (B16-F10 melanoma cells) | No. lung colonies (B16-F10 melanoma cells) | Inhibition (%) (B16-F10 melanoma cells) | Cell number (Fold) (HUVECs [1]) | Tube length (Fold) (HUVECs [2]) | extravasation of FITC-BSA [3] | Fluorescence Intensity (Fold) [3] [Fold] | level of sprouting microvessels around the aortic ring (rat aortic ring) | dose dependence of inhibitory action on VEGF-induced cell proliferation (RPMI8226 cells; 1 to 25 μM, RPMI8226 cells) | biological activity of the analogue relative to the 7-mer (summary statement of the description) (RPMI8226 cells) |
| --- | --- | --- | --- | --- | --- | --- | --- | --- | --- | --- | --- |
| NH2-Asp-Leu-Tyr-Lys-Val-Pro-Ser-COOH (DLYKVPS; not fully specified (N-terminus, C-terminus); printed as NH2-Asp-Leu-Tyr-Lys-Val-Pro-Ser-COOH) [7-mer KP] | could sustain 7-mer bioactivity, only partly | may suppress in vivo metastasis | 69 ± 11.5 | 69.3 | 1.02 ± 0.075 | 1.62 ± 0.29 | may significantly prevent | 0.37 ± 0.13 | inhibited | – | – |
| NH2-Asp-Leu-Trp-Arg-Ile-Arg-Ser-COOH (DLWRIRS; not fully specified (N-terminus, C-terminus); printed as NH2-Asp-Leu-Trp-Arg-Ile-Arg-Ser-COOH) [7-mer WI] | could sustain 7-mer bioactivity, only partly | may suppress in vivo metastasis | 74 ± 24.3 | 67.3 | 0.91 ± 0.078 | 1.23 ± 0.22 | may significantly prevent | 0.31 ± 0.085 | inhibited | – | – |
| H-DLYR[dV]RS-OH [7-mer DV] | – | may suppress in vivo metastasis | 51 ± 17.0 | 77.4 | 0.99 ± 0.078 | 1.24 ± 0.18 | may significantly prevent | 0.31 ± 0.072 | inhibited | dose dependent manner | – |
| NH2-Asp-Leu-Tyr-Arg-Leu-Arg-Ser-COOH (DLYRLRS; not fully specified (N-terminus, C-terminus); printed as NH2-Asp-Leu-Tyr-Arg-Leu-Arg-Ser-COOH) [7-mer (V→L)] | could sustain 7-mer bioactivity, only partly | may suppress in vivo metastasis | 75 ± 30.4 | 66.8 | 1.02 ± 0.049 | 1.41 ± 0.37 | may significantly prevent | 0.33 ± 0.079 | inhibited | – | relatively the same bioactivity |
| NH2-Asp-Leu-Tyr-Arg-Met-Lys-Ser-COOH (DLYRMKS; not fully specified (N-terminus, C-terminus); printed as NH2-Asp-Leu-Tyr-Arg-Met-Lys-Ser-COOH) [7-mer MK] | could sustain 7-mer bioactivity, only partly | may suppress in vivo metastasis | 79 ± 26.4 | 65.0 | 1.04 ± 0.062 | 1.18 ± 0.31 | may significantly prevent | 0.37 ± 0.095 | inhibited | – | – |
| NH2-Asn-Val-Tyr-Arg-Val-Arg-Ser-COOH (NVYRVRS; not fully specified (N-terminus, C-terminus); printed as NH2-Asn-Val-Tyr-Arg-Val-Arg-Ser-COOH) [7-mer NV] | could sustain 7-mer bioactivity, only partly | may suppress in vivo metastasis | 55 ± 16.5 | 75.8 | 1.01 ± 0.086 | 1.41 ± 0.32 | may significantly prevent | 0.35 ± 0.11 | inhibited | – | – |
| NH2-Asp-Leu-Tyr-Arg-Val-Arg-(D-Ser)-COOH (H-DLYRVR[dS]-OH) [7-mer DS] | – | – | 245 ± 30.4 | −9.0 | 1.59 ± 0.084 | 3.45 ± 0.26 | – | 0.96 ± 0.12 | unaffected | – | lose its biological activity |

From patent US10463709B2, “Short synthetic peptide for treating diseases and/or conditions related to angiogenesis” (MacKay Memorial Hospital, priority 2015, dated 2019)
